According to paper PMC8286840, “Identifying SARS-CoV-2 antiviral compounds by screening for small molecule inhibitors of Nsp3 papain-like protease” (Biochemical Journal, 2021):
Counter-ions that a name gives are not always drawn. Like-named read-outs stand apart in the source and are kept apart here.

How the values were obtained:
[1] = molecular target: T1, SARS-CoV-2 PLpro (nsp3 1564–1878) (Severe acute respiratory syndrome coronavirus 2, UniProt P0DTD1); assay: biochemical; set-up: FRET-quenched peptide (Pro3) cleavage by PLpro, 10 min pre-incubation, slope over 20 min, normalised to no-compound control; conditions: low concentration screen, read-out: % of control remaining
[2] = molecular target: T1, SARS-CoV-2 PLpro (nsp3 1564–1878); assay: biochemical; set-up: FRET-quenched peptide (Pro3) cleavage by PLpro, 10 min pre-incubation, slope over 20 min, normalised to no-compound control; conditions: high concentration screen, read-out: % of control remaining

Q: For `COc1ccc(/C=C/C(=O)Nc2ccccc2C(=O)O)cc1OC` [Tranilast (trans-)], which remaining activity at 1.25 µM ([1]; Well no.=7917) is on record?
A: 92.9%

Q: And the remaining activity at 3.75 µM ([2]; Well no.=7917)?
A: 92%

Q: Which remaining activity at 1.25 µM ([1]; Well no.=1519) does the source give for `COc1ccc(/C=C/C(=O)Nc2ccccc2C(=O)O)cc1OC` [Tranilast] here?
A: 95.4%

Q: What about the remaining activity at 1.25 µM ([1]; Well no.=1807) of the same molecule?
A: 96.3%

Q: What about the remaining activity at 1.25 µM ([1]; Well no.=6317) of the same molecule?
A: 104%

Q: What about the remaining activity at 3.75 µM ([2]; Well no.=1519) of the same molecule?
A: 94.6%

Q: And the remaining activity at 3.75 µM ([2]; Well no.=1807)?
A: 96.1%

Q: What about the remaining activity at 3.75 µM ([2]; Well no.=6317) of the same molecule?
A: 97.4%

Q: With `CN1C(=O)C[C@H](C(=O)O)[C@H]1c1cccnc1` [Trans-4-Cotininecarboxylic acid] as the molecule, how does the remaining activity at 1.25 µM ([1]; Well no.=3200) read?
A: 95.4%

Q: And the remaining activity at 3.75 µM ([2]; Well no.=3200)?
A: 97.7%

Q: Which results are given for `N[C@@H]1C[C@H]1c1ccccc1` [Tranylcypromine hydrochloride]?
A: remaining activity at 1.25 µM ([1]; Well no.=1399): 100%; remaining activity at 3.75 µM ([2]; Well no.=1399): 105%

Q: Which remaining activity at 1.25 µM ([1]; Well no.=7432) does the source give for `O=c1n(CCCN2CCN(c3cccc(Cl)c3)CC2)nc2ccccn12` [Trazodone (hydrochloride)] here?
A: 109%

Q: What about the remaining activity at 3.75 µM ([2]; Well no.=7432) of the same molecule?
A: 111%

Q: Which results are given for `O=c1n(CCCN2CCN(c3cccc(Cl)c3)CC2)nc2ccccn12` [Trazodone hydrochloride]?
A: remaining activity at 1.25 µM ([1]; Well no.=1339): 102%; remaining activity at 3.75 µM ([2]; Well no.=1339): 104%

Q: How did the remaining activity at 1.25 µM ([1]; Well no.=8480) turn out when `Cn1c(=O)cc(N2CCC[C@@H](N)C2)n(Cc2cc(F)ccc2C#N)c1=O` [Trelagliptin] was run?
A: 99.1%

Q: What about the remaining activity at 3.75 µM ([2]; Well no.=8480) of the same molecule?
A: 98.9%

Q: What does the source list for `COc1cc2c(cc1OC)-c1c/c(=N\c3c(C)cc(C)cc3C)n(C)c(=O)n1CC2` [Trequinsin hydrochloride]?
A: remaining activity at 1.25 µM ([1]; Well no.=1379): 98.6%; remaining activity at 3.75 µM ([2]; Well no.=1379): 97.1%

Q: What does the source list for `CC1(C)O[C@@H]2C[C@H]3[C@@H]4CCC5=CC(=O)C=C[C@]5(C)[C@@]4(F)[C@@H](O)C[C@]3(C)[C@]2(C(=O)CO)O1` [Triamcinolone (acetonide)]?
A: remaining activity at 1.25 µM ([1]; Well no.=6574): 105%; remaining activity at 3.75 µM ([2]; Well no.=6574): 108%

Q: What does the source list for `C[C@]12C=CC(=O)C=C1CC[C@H]1[C@@H]3C[C@@H](O)[C@](O)(C(=O)CO)[C@@]3(C)C[C@H](O)[C@@]12F` [Triamcinolone]?
A: remaining activity at 1.25 µM ([1]; Well no.=1435): 98.1%; remaining activity at 1.25 µM ([1]; Well no.=2004): 108%; remaining activity at 1.25 µM ([1]; Well no.=6419): 94.8%; remaining activity at 3.75 µM ([2]; Well no.=1435): 100%; remaining activity at 3.75 µM ([2]; Well no.=2004): 106%; remaining activity at 3.75 µM ([2]; Well no.=6419): 96.2%

Q: Which remaining activity at 1.25 µM ([1]; Well no.=1525) does the source give for `Nc1nc(N)c2nc(-c3ccccc3)c(N)nc2n1` [Triamterene] here?
A: 94%

Q: What about the remaining activity at 3.75 µM ([2]; Well no.=1525) of the same molecule?
A: 91.1%

Q: For `NS(=O)(=O)c1cc2c(cc1Cl)NC(C(Cl)Cl)NS2(=O)=O` (stereo not shown) [Trichlormethiazide], which remaining activity at 1.25 µM ([1]; Well no.=8656) is on record?
A: 102%

Q: What about the remaining activity at 3.75 µM ([2]; Well no.=8656) of the same molecule?
A: 99.7%

Q: With `NS(=O)(=O)c1cc2c(cc1Cl)NC(C(Cl)Cl)NS2(=O)=O` (stereo not shown) [Trichloromethiazide] as the molecule, how does the remaining activity at 1.25 µM ([1]; Well no.=2072) read?
A: 101%

Q: And the remaining activity at 3.75 µM ([2]; Well no.=2072)?
A: 100%

Q: Which remaining activity at 1.25 µM ([1]; Well no.=3205) does the source give for `CC(C)[C@H]1C(=O)O[C@@H]2CCN3CC=C(COC(=O)[C@](C)(O)[C@]1(C)O)[C@H]23` [Trichodesmine] here?
A: 105%

Q: And the remaining activity at 3.75 µM ([2]; Well no.=3205)?
A: 106%

Q: Which remaining activity at 1.25 µM ([1]; Well no.=4617) does the source give for `CC(/C=C/C(=O)NO)=C\[C@@H](C)C(=O)c1ccc(N(C)C)cc1` [Trichostatin A (TSA)] here?
A: 106%

Q: And the remaining activity at 3.75 µM ([2]; Well no.=4617)?
A: 107%

Q: What does the source list for `Oc1cc(Cl)ccc1Oc1ccc(Cl)cc1Cl` [Triclosan]?
A: remaining activity at 1.25 µM ([1]; Well no.=8252): 101%; remaining activity at 3.75 µM ([2]; Well no.=8252): 98.2%

Q: Which results are given for `CCCCCCCCCCCCCCCCCCCCCCC(=O)O` [Tricosanoic acid]?
A: remaining activity at 1.25 µM ([1]; Well no.=4496): 91.3%; remaining activity at 3.75 µM ([2]; Well no.=4496): 92.7%

Q: What does the source list for `CCCCCCCCCCCCC(=O)O` [Tridecanoic acid]?
A: remaining activity at 1.25 µM ([1]; Well no.=4260): 106%; remaining activity at 3.75 µM ([2]; Well no.=4260): 98%

Q: Which results are given for `CN1CCN(CCCN2c3ccccc3Sc3ccc(C(F)(F)F)cc32)CC1` [Trifluoperazine (dihydrochloride)]?
A: remaining activity at 1.25 µM ([1]; Well no.=6369): 105%; remaining activity at 3.75 µM ([2]; Well no.=6369): 105%

Q: Which results are given for `CN1CCN(CCCN2c3ccccc3Sc3ccc(C(F)(F)F)cc32)CC1` [Trifluoperazine dihydrochloride]?
A: remaining activity at 1.25 µM ([1]; Well no.=1326): 101%; remaining activity at 3.75 µM ([2]; Well no.=1326): 100%

Q: With `O=C(CCCN1CCC(O)(c2cccc(C(F)(F)F)c2)CC1)c1ccc(F)cc1` [Trifluperidol hydrochloride] as the molecule, how does the remaining activity at 1.25 µM ([1]; Well no.=1376) read?
A: 96.4%

Q: And the remaining activity at 3.75 µM ([2]; Well no.=1376)?
A: 94.4%

Q: With `O=C(CCCN1CCC(O)(c2cccc(C(F)(F)F)c2)CC1)c1ccc(F)cc1` [Trifluperidol] as the molecule, how does the remaining activity at 1.25 µM ([1]; Well no.=2296) read?
A: 95.3%

Q: What about the remaining activity at 3.75 µM ([2]; Well no.=2296) of the same molecule?
A: 96.6%

Q: Which results are given for `CN(C)CCCN1c2ccccc2Sc2ccc(C(F)(F)F)cc21` [Triflupromazine (hydrochloride)]?
A: remaining activity at 1.25 µM ([1]; Well no.=6373): 105%; remaining activity at 3.75 µM ([2]; Well no.=6373): 103%

Q: Which results are given for `O=c1[nH]c(=O)n([C@H]2C[C@H](O)[C@@H](CO)O2)cc1C(F)(F)F` [Trifluridine]?
A: remaining activity at 1.25 µM ([1]; Well no.=6438): 98%; remaining activity at 1.25 µM ([1]; Well no.=8058): 85.9%; remaining activity at 3.75 µM ([2]; Well no.=6438): 98.3%; remaining activity at 3.75 µM ([2]; Well no.=8058): 86.7%

Q: Which remaining activity at 1.25 µM ([1]; Well no.=4942) does the source give for `CC(=O)Oc1cc(C(F)(F)F)ccc1C(=O)O` [Triflusal] here?
A: 98.7%

Q: What about the remaining activity at 3.75 µM ([2]; Well no.=4942) of the same molecule?
A: 96.4%

Q: With `OC(CCN1CCCCC1)(c1ccccc1)C1CCCCC1` (stereo not shown) [Trihexyphenidyl (hydrochloride)] as the molecule, how does the remaining activity at 1.25 µM ([1]; Well no.=6375) read?
A: 105%

Q: What about the remaining activity at 3.75 µM ([2]; Well no.=6375) of the same molecule?
A: 105%

Q: With `OC(CCN1CCCCC1)(c1ccccc1)C1CCCCC1` (stereo not shown) [Trihexyphenidyl hydrochloride] as the molecule, how does the remaining activity at 1.25 µM ([1]; Well no.=1187) read?
A: 92.8%

Q: And the remaining activity at 3.75 µM ([2]; Well no.=1187)?
A: 92%

Q: `C[C@]12CC[C@H]3[C@@H](CC[C@@]45O[C@@H]4C(O)=C(C#N)C[C@]35C)[C@@H]1CC[C@@H]2O` [Trilostane] was tested. Which remaining activity at 1.25 µM ([1]; Well no.=4815) did it give?
A: 101%

Q: And the remaining activity at 3.75 µM ([2]; Well no.=4815)?
A: 107%

Q: With `CCC(COC(=O)c1cc(OC)c(OC)c(OC)c1)(c1ccccc1)N(C)C` (stereo not shown) [Trimebutine] as the molecule, how does the remaining activity at 1.25 µM ([1]; Well no.=4762) read?
A: 103%

Q: What about the remaining activity at 3.75 µM ([2]; Well no.=4762) of the same molecule?
A: 105%

Q: Which remaining activity at 1.25 µM ([1]; Well no.=8493) does the source give for `COc1cc(C(=O)NCc2ccc(OCCN(C)C)cc2)cc(OC)c1OC` [Trimethobenzamide hydrochloride] here?
A: 90.1%

Q: What about the remaining activity at 3.75 µM ([2]; Well no.=8493) of the same molecule?
A: 91.3%

Q: How did the remaining activity at 1.25 µM ([1]; Well no.=1516) turn out when `COc1cc(Cc2cnc(N)nc2N)cc(OC)c1OC` [Trimethoprim] was run?
A: 96%

Q: What about the remaining activity at 1.25 µM ([1]; Well no.=2006) of the same molecule?
A: 99.3%

Q: And the remaining activity at 3.75 µM ([2]; Well no.=1516)?
A: 94.5%

Q: And the remaining activity at 3.75 µM ([2]; Well no.=2006)?
A: 97.8%

Q: How did the remaining activity at 1.25 µM ([1]; Well no.=6715) turn out when `CC(CN(C)C)CN1c2ccccc2CCc2ccccc21` (stereo not shown) [Trimipramine (maleate)] was run?
A: 106%

Q: What about the remaining activity at 3.75 µM ([2]; Well no.=6715) of the same molecule?
A: 100%
